Assay results: patent US8436205B2, “Tetrahydronaphthalene compounds” (Actelion Pharmaceuticals Ltd., priority 2008, dated 2013)

Assays:
[1] = tested on: human Cav3.1 Cav3.2 or Cav3.3 channel; experiment: In vitro assay T channel (FLIPR, Ca2+-induced calcium fluorescence); assay type: cell-based; conditions: HEK293 cells; 10 mM Ca2+; geometric mean from n values; read-out: T channel antagonistic activity IC50
Experimental: The T channel antagonistic activity (IC50 values) of the compounds of formula (I) is determined in accordance with the following experimental method and data are shown in Table 1.
Human embryonic kidney (HEK293) cells expressing the human Cav3.1 Cav3.2 or Cav3.3 channel, respectively, are grown in culture medium (DMEM containing 10% heat-inactivated fetal calf serum (FCS), 100 U/ml penicillin, 100 μg/ml streptomycin and 1 mg/ml G418). The cells are seeded at 20.000 cells/well into 384-well black clear bottom sterile plates (poly-L-lysine-coated, Becton Dickinson). The seeded plates are incubated overnight at 37° C. in 5% CO2. The Ca^2+ solution is prepared as 100 mM stock solution in 100 mM tetraethylammoniumchloride (TEA-chloride), 50 mM HEPES, 2.5 mM CaCl2, 5 mM KCl, 1 mM MgCl2, adjusted to pH 7.2 with TEA-hydroxide, for use in the assay at a final concentration of 10 mM. Antagonists are prepared as 10 mM stock solutions in DMSO, then diluted in 384 w plates first in DMSO, then in 100 mM TEA-chloride, 50 mM HEPES, 2.5 mM CaCl2, 5 mM KCl, 1 mM MgCl2, adjusted to pH 7.2 with TEA-hydroxide, to obtain 9× stocks. On the day of the assay, 25 μl of staining buffer (HBSS containing 20 mM HEPES, 0.375 g/l NaHCO3 and 3 μM of the fluorescent calcium indicator fluo-4 AM (1 mM stock solution in DMSO, containing 10% pluronic) is added to each well of the seeded plate. The 384-well cell-plates are incubated for 60 min at 37° C. in 5% CO2 followed by washing with 2×50 μl per well using HBSS containing 0.1% BSA, 20 mM HEPES, 0.375 g/l NaHCO3, leaving 50 […] of this buffer for equilibration at room temperature (30-60 min). Within the Fluorescent Imaging Plate Reader (FLIPR, Molecular Devices), antagonists are added to the plate in a volume of 6.25 Owen, incubated for 3 min, and finally 6.25 […] of Ca^2+ solution is added. Fluorescence is measured for each well at 2 second intervals for 8 minutes, and the area under the curve of each fluorescence peak is compared to the area of the fluorescence peak induced by 10 mM Ca^2+ with vehicle in place of antagonist. For each antagonist, the 1050 value (the concentration (in nM) of compound needed to inhibit 50% of the Ca^2+-induced fluorescence response) up to 10 μM is determined. The calculated IC50 values of the compounds may fluctuate depending on the daily cellular assay performance. Fluctuations of this kind are known to those skilled in the art.

isolated mouse hearts = experiment: Effect on isolated hearts according to the Langendorff method (Lgdff)
Experimental: The compounds were tested for their potential to reduce blood pressure and their effect on the contractility of the heart muscle. EC50 values on isolated mouse hearts were determined according to Literature (Doring H J., The isolated perfused heart according to Langendorff technique—function—application, Physiol. Bohemoslov. 1990, 39(6), 481-504; Kligfield P, Horner H, Brachfeld N., A model of graded ischemia in the isolated perfused rat heart, J. Appl. Physiol. 1976 June, 40(6), 1004-8).
7 example compounds have been measured using the procedure described above for the Langendorff experiment. The measured EC50 values were in the range of 7 to 29 nM with an average of 13 nM.

SMILES	IC50 [1]	EC50 (isolated mouse hearts)
COCC(C)(COC)CN(CCF)CCCN(C)CC[C@@]1(O)CCc2cc(F)ccc2[C@@H]1C(C)C [Example 1, (1S,2S)-6-Fluoro-2-[2-({3-[(2-fluoro-ethyl)-(3-methoxy-2-methoxymethyl-2-methyl-propyl)-amino]-propyl}-methyl-amino)-ethyl]-1-isopropyl-1,2,3,4-tetrahydro-naphthalen-2-ol]	3.25 µM	
COCC(C)(COC)CN(CCF)CCCN(C)CC[C@@]1(OC(=O)C(C)C)CCc2cc(F)ccc2[C@@H]1C(C)C [Example 2, Isobutyric acid (1S,2S)-6-fluoro-2-[2-({3-[(2-fluoro-ethyl)-(3-methoxy-2-methoxymethyl-2-methyl-propyl)-amino]-propyl}-methyl-amino)-ethyl]-1-isopropyl-1,2,3,4-tetrahydro-naphthalen-2-yl ester]	3.15 µM	
COCC(C)(COC)CN(CCF)CCCN(C)CC[C@@]1(OC(=O)CC(F)(F)F)CCc2cc(F)ccc2[C@@H]1C(C)C [Example 3, 3,3,3-Trifluoro-propionic acid (1S,2S)-6-fluoro-2-[2-({3-[(2-fluoro-ethyl)-(3-methoxy-2-methoxymethyl-2-methyl-propyl)-amino]-propyl}-methyl-amino)-ethyl]-1-isopropyl-1,2,3,4-tetrahydro-naphthalen-2-yl ester]	5.41 µM	0.007 µM
COCC(C)(COC)CN(CCF)CCCN(C)CC[C@@]1(OC(=O)CF)CCc2cc(F)ccc2[C@@H]1C(C)C [Example 4, Fluoro-acetic acid (1S,2S)-6-fluoro-2-[2-({3-[(2-fluoro-ethyl)-(3-methoxy-2-methoxymethyl-2-methyl-propyl)-amino]-propyl}-methyl-amino)-ethyl]-1-isopropyl-1,2,3,4-tetrahydro-naphthalen-2-yl ester]	3.96 µM	
COCC(C)(COC)CN(CCCN(C)CC[C@@]1(O)CCc2cc(F)ccc2[C@@H]1C(C)C)CC(F)F [Example 5, (1S,2S)-2-[2-({3-[(2,2-Difluoro-ethyl)-(3-methoxy-2-methoxymethyl-2-methyl-propyl)-amino]-propyl}methyl-amino)-ethyl]-6-fluoro-1-isopropyl-1,2,3,4-tetrahydro-naphthalen-2-ol]	3.7 µM	
COCC(C)(COC)CN(CCCN(C)CC[C@@]1(OC(=O)C(C)C)CCc2cc(F)ccc2[C@@H]1C(C)C)CC(F)F [Example 6, Isobutyric acid (1S,2S)-2-[2-({3-[(2,2-difluoro-ethyl)-(3-methoxy-2-methoxymethyl-2-methyl-propyl)-amino]-propyl}-methyl-amino)-ethyl]-6-fluoro-1-isopropyl-1,2,3,4-tetrahydro-naphthalen-2-yl ester]	7.89 µM	0.009 µM
COCC(C)(COC)CN(CCCN(C)CC[C@@]1(OC(=O)CC(F)(F)F)CCc2cc(F)ccc2[C@@H]1C(C)C)CC(F)F [Example 7, 3,3,3-Trifluoro-propionic acid (1S,2S)-2-[2-({3-[(2,2-difluoro-ethyl)-(3-methoxy-2-methoxymethyl-2-methyl-propyl)-amino]-propyl}-methyl-amino)-ethyl]-6-fluoro-1-isopropyl-1,2,3,4-tetrahydro-naphthalen-2-yl ester]	6.34 µM	
COCC(C)(COC)CN(CCCN(C)CC[C@@]1(O)CCc2cc(F)ccc2[C@@H]1C(C)C)CC(F)(F)F [Example 8, (1S,2S)-6-Fluoro-1-isopropyl-2-[2-({3-[(3-methoxy-2-methoxymethyl-2-methyl-propyl)-(2,2,2-trifluoro-ethyl)-amino]-propyl}-methyl-amino)-ethyl]-1,2,3,4-tetrahydro-naphthalen-2-ol]	2.88 µM	
COCC(C)(COC)CN(CCCN(C)CC[C@@]1(OC(=O)C(C)C)CCc2cc(F)ccc2[C@@H]1C(C)C)CC(F)(F)F [Example 9, Isobutyric acid (1S,2S)-6-fluoro-1-isopropyl-2-[2-({3-[(3-methoxy-2-methoxymethyl-2-methyl-propyl)-(2,2,2-trifluoro-ethyl)-amino]-propyl}-methyl-amino)-ethyl]-1,2,3,4-tetrahydro-naphthalen-2-yl ester]	1.69 µM	
COCC(C)(COC)CN(CCCN(C)CC[C@@]1(OC(=O)CC(F)(F)F)CCc2cc(F)ccc2[C@@H]1C(C)C)CC(F)(F)F [Example 10, 3,3,3-Trifluoro-propionic acid (1S,2S)-6-fluoro-1-isopropyl-2-[2-({3-[(3-methoxy-2-methoxymethyl-2-methyl-propyl)-(2,2,2-trifluoro-ethyl)-amino]-propyl}-methyl-amino)-ethyl]-1,2,3,4-tetrahydro-naphthalen-2-yl ester]	> 10 µM	0.009 µM
